Earlier results, collected in patent US8591947B2, “Dual controlled release dosage form” (Osmotica Kereskedelmi és Szolgáltató KFT, priority 2001, dated 2013).
Counter-ions that a name gives are not always drawn.

Row | Compound | Solubility of component in water (U.S.P. term)
1 | CCC(=O)O[C@]1(C(=O)SCF)[C@H](C)C[C@H]2[C@@H]3C[C@H](F)C4=CC(=O)C=C[C@]4(C)[C@@]3(F)[C@@H](O)C[C@@]21C [fluticasone propionate] | practically insoluble
2 | CCC(=O)O[C@@H](O[P@](=O)(CCCCc1ccccc1)CC(=O)N1C[C@H](C2CCCCC2)C[C@H]1C(=O)O)C(C)C [fosinopril sodium] | soluble
3 | NCC1(CC(=O)O)CCCCC1 [gabapentin] | freely soluble
4 | COc1ccc2c3c1O[C@H]1C[C@@H](O)C=C[C@@]31CCN(C)C2 [galantamine HBr] | sparingly soluble
5 | COc1ccc(Cl)cc1C(=O)NCCc1ccc(S(=O)(=O)NC(=O)NC2CCCCC2)cc1 [glyburide] | practically insoluble
6 | COc1ccc2c3c1O[C@H]1C(=O)CC[C@H]4[C@@H](C2)N(C)CC[C@]314.O=C(O)C(O)C(O)C(=O)O [hydrocodone bitartrate] | soluble
7 | OCCOCCN1CCN(C(c2ccccc2)c2ccc(Cl)cc2)CC1 (stereo not shown) [hydroxyzine] | very soluble
8 | CC(C)Cc1ccc(C(C)C(=O)O)cc1 (stereo not shown) [ibuprofen] | very slightly soluble
9 | O=[N+]([O-])O[C@@H]1CO[C@H]2[C@@H]1OC[C@@H]2O [isosorbide mononitrate] | freely soluble
10 | Cc1c(OCC(F)(F)F)ccnc1C[S+]([O-])c1nc2ccccc2[nH]1 (stereo not shown) [lansoprazole] | practically insoluble
11 | CC[C@@H](C(N)=O)N1CCCC1=O [levetiracetam] | very soluble
12 | NCCCC[C@H](N[C@@H](CCc1ccccc1)C(=O)O)C(=O)N1CCC[C@H]1C(=O)O [lisinopril] | soluble
13 | CCCCc1nc(Cl)c(CO)n1Cc1ccc(-c2ccccc2-c2nn[nH]n2)cc1 [losartan potassium] | freely soluble
14 | Cc1cccc(CN2CCN(C(c3ccccc3)c3ccc(Cl)cc3)CC2)c1 (stereo not shown) [meclizine HCl] | soluble
15 | CC12CC3CC(C)(C1)CC(N)(C3)C2 [memantine HCl] | slightly soluble
16 | COCCc1ccc(OCC(O)CNC(C)C)cc1 (stereo not shown) [metoprolol tartrate] | very soluble
17 | Cc1ncc([N+](=O)[O-])n1CCO [metronidazole] | sparingly soluble
18 | C[C@@H]1C[C@H]2[C@@H]3CCC4=CC(=O)C=C[C@]4(C)[C@@]3(Cl)[C@@H](O)C[C@]2(C)[C@@]1(OC(=O)c1ccco1)C(=O)CCl [mometasone furoate] | practically insoluble
19 | COC(=O)C1=C(C)NC(C)=C(C(=O)OCC(C)C)C1c1ccccc1[N+](=O)[O-] (stereo not shown) [nisoldipine] | practically insoluble
20 | Cc1cc2c(s1)Nc1ccccc1N=C2N1CCN(C)CC1 [olanzapine] | practically insoluble
21 | COc1ccc2[nH]c([S+]([O-])Cc3ncc(C)c(OC)c3C)nc2c1 (stereo not shown) [omeprazole] | very slightly soluble
22 | COc1ccc2c3c1O[C@H]1C(=O)CC[C@@]4(O)[C@@H](C2)N(C)CC[C@]314 [oxycodone] | soluble
23 | Fc1ccc([C@@H]2CCNC[C@H]2COc2ccc3c(c2)OCO3)cc1 [paroxetine HCl] | slightly soluble

Row | Compound | Solubility of component in water (U.S.P. term)
24 | O=C1N=C([O-])NC1(c1ccccc1)c1ccccc1.[Na+] [phenyloin sodium] | soluble
25 | CC(C)NCC(O)COc1cccc2[nH]ccc12 (stereo not shown) [pindolol] | practically insoluble
26 | CCc1ccc(CCOc2ccc(CC3SC(=O)NC3=O)cc2)nc1 (stereo not shown) [pioglitazone HCl] | practically insoluble
27 | CC[C@H](C)C(=O)O[C@H]1C[C@H](O)C=C2C=C[C@H](C)[C@H](CC[C@@H](O)C[C@@H](O)CC(=O)O)[C@H]21 [pravastatin sodium] | soluble
28 | C[C@]12C=CC(=O)C=C1CC[C@@H]1[C@@H]2C(=O)C[C@@]2(C)[C@H]1CC[C@]2(O)C(=O)CO [prednisone] | very slightly soluble
29 | CC(CN1c2ccccc2Sc2ccccc21)N(C)C (stereo not shown) [promethazine HCl] | soluble
30 | CCC(=O)O[C@](Cc1ccccc1)(c1ccccc1)[C@H](C)CN(C)C.Cl [propoxiphene HCl] | freely soluble
31 | CC(C)NCC(O)COc1cccc2ccccc12 (stereo not shown) [propranolol HCl] | soluble
32 | CCOC(=O)[C@H](CCc1ccccc1)N[C@@H](C)C(=O)N1Cc2ccccc2C[C@H]1C(=O)O [quinapril] | freely soluble
33 | COCCCOc1ccnc(C[S+]([O-])c2nc3ccccc3[nH]2)c1C (stereo not shown) [rabeprazole sodium] | very soluble
34 | Cl.O=C(c1ccc(OCCN2CCCCC2)cc1)c1c(-c2ccc(O)cc2)sc2cc(O)ccc12 [ralozifene HCL] | very slightly soluble
35 | CCOC(=O)[C@H](CCc1ccccc1)N[C@@H](C)C(=O)N1[C@H](C(=O)O)C[C@@H]2CCC[C@@H]21 [ramipril] | slightly soluble
36 | CNC(=C[N+](=O)[O-])NCCSCc1ccc(CN(C)C)o1 [ranitidine HCl] | very soluble
37 | Cc1nc2n(c(=O)c1CCN1CCC(c3noc4cc(F)ccc34)CC1)CCCC2 [risperidone] | practically insoluble
38 | CCN(C)C(=O)Oc1cccc([C@H](C)N(C)C)c1 [rivastigmine hydrogen tartrate] | very soluble
39 | CS(=O)(=O)c1ccc(C2=C(c3ccccc3)C(=O)OC2)cc1 [rofecoxib] | practically insoluble
40 | CN(CCOc1ccc(CC2SC(=O)NC2=O)cc1)c1ccccn1 (stereo not shown) [rosiglitazone maleate] | soluble
41 | OCc1cc(C(O)CNCCCCCCOCCCCc2ccccc2)ccc1O (stereo not shown) [salmeterol] | sparingly soluble
42 | CN[C@H]1CC[C@@H](c2ccc(Cl)c(Cl)c2)c2ccccc21 [sertraline HCl] | slightly soluble
43 | CCCc1nn(C)c2c(=O)[nH]c(-c3cc(S(=O)(=O)N4CCN(C)CC4)ccc3OCC)nc12 [sildenafil citrate] | slightly soluble
44 | CNS(=O)(=O)Cc1ccc2[nH]cc(CCN(C)C)c2c1 [sumatriptan] | soluble
45 | COc1cccc(C2(O)CCCCC2CN(C)C)c1 (stereo not shown) [tramadol HCl] | freely soluble
46 | O=c1n(CCCN2CCN(c3cccc(Cl)c3)CC2)nc2ccccn12 [trazodone HCl] | sparingly soluble
